From patent US8119750B2, “Explosion taming surfactants for the production of perfluoropolymers” (3M Innovative Properties Company, priority 2006, dated 2012) come the findings set out here.

Marks after values point to notes of the source that are not given here.

This series in a line: Determination of bio-accumulation: urinary clearance pharmacokinetic study in rats. The settings on record: male Sprague Dawley rats, 73 micro Moles per kg oral gavage; for T ½ (h) (renal half-life): urine by fluorine NMR, exponential least squares curve fitting.

In the case of `N.O=C(O)C(F)(F)C(F)OC(F)(F)C(F)(F)C(F)(F)F` (stereo not drawn) [Compound 3, C3F7—O—CFH—CF2COONH4], the “T ½ (h) (renal half-life)” value came to 11 h.

As to `N.O=C(O)C(F)OC(F)(F)C(F)(F)C(F)(F)OC(F)(F)F` (stereo not drawn) [Compound 2, CF3—O—CF2—CF2—CF2—O—CHF—COONH4], the “T ½ (h) (renal half-life)” value came to 11 h.

Consider `N.O=C(O)C(F)(F)C(F)(F)C(F)(F)C(F)(F)C(F)(F)C(F)(F)C(F)(F)F` [Compound C-1, C7F15COONH4, reference compound], for which the “T ½ (h) (renal half-life)” value was roughly 550 h.

Consider `N.O=C(O)C(F)(F)C(F)(F)C(F)(F)OC(F)C(F)(F)F` (stereo not drawn) [Compound 5, CF3—CFH—O—(CF2)3—COONH4], for which the “T ½ (h) (renal half-life)” value was 8 h.

`N.O=C(O)C(F)(F)C(F)OC(F)(F)C(F)(F)C(F)(F)OC(F)(F)F` (stereo not drawn) [Compound 1, CF3—O—CF2—CF2—CF2—O—CHF—CF2—COONH4]: the “T ½ (h) (renal half-life)” value turned out to be 12 h.

For the molecule `N.O=C(O)COC(F)(F)C(F)OC(F)(F)C(F)(F)C(F)(F)F` (stereo not drawn) [Compound 6, C3F7—O—CFH—CF2—O—CH2—COONH4], the “T ½ (h) (renal half-life), based on elimination of the major metabolite C3F7—O—CHFCOO−” value (no parent compound observed in the urine) is recorded as 13* h.

Turning to `N.O=C(O)C(F)(F)OC(F)(F)C(F)(F)C(F)(F)OC(F)(F)F` [Compound C-2, CF3—O—(CF2)3—O—CF2—COONH4, reference compound], the “T ½ (h) (renal half-life)” value came to 10 h.

Take `N.O=C(O)C(F)(F)C(F)(F)OC(F)(F)C(F)(F)C(F)(F)C(F)(F)F` [Compound C-3, C4F9—O—CF2—CF2—COONH4, reference compound]: the “T ½ (h) (renal half-life)” value amounted to 31 h.

Consider `N.O=C(O)C(F)(F)C(F)(F)C(F)(F)C(F)(F)C(F)(F)OC(F)C(F)(F)F` (stereo not drawn) [Compound 4, CF3—CFH—O—(CF2)5—COONH4], for which the “T ½ (h) (renal half-life)” value was determined as 24 h.
